Results reported in patent publication US6841368B1, “Enzymatic production of difructose dianhydride IV from sucrose and relevant enzymes and genes coding for them” (priority 1999, dated 2005).
Where two headings read alike, the source gives them in different places.

Key:
[1] = tested on: levan fructotransferase from A. ureafaciens K2032; test: Effect of additives on the activity of levan fructotransferase; type: biochemical
Procedure: (§1) The purified enzyme was 51,000 in molecular weight as measured by SDS-PAGE while being measured to have a molecular weight of 96,000 by gel filtration chromatography. Thus, it was identified as being a dimer in aqueous conditions. […] Also, it was of optimal activity at 55° C. […] Whereas being inhibited by Mn^2+, Fe^2+ and Hg^2+, the activity of the enzyme was enhanced by […] and Ca^2+.

[2] = type: biochemical, A. ureafaciens K2032
Procedure: A. ureafaciens K2032 was inoculated in a selective broth containing levan as a major carbon source and cultured at 30° C. for 72 hours in an incubator. Investigation into the growth and levan fructotransferase activity of the bacteria provided the knowledge that the largest enzyme activity is obtained after 10 hours of the incubation. From the culture incubated for 10 hours, the enzyme was purified (FIG. 5). In this regard, the purification was achieved by successively using acetone precipitation, ion exchange chromatography (DEAE 650-M and Mono Q), and gel filtration chromatography, resulting in producing levan fructotransferase with a specific activity of 2269 U/mg protein at an amount of 1.1 mg at a yield of 29.8% (Table 8).
as §1
The newly isolated levan fructotransferase structural gene is composed of 1566 bp which corresponds to 521 aa. The gene of the present invention has a signal sequence consisting of 99 bp (corresponding to 33 aa) at its N-terminus and therefore, the putative completed protein may be about 56 kDa in molecular weight. […] This levan fructotransferase gene is longer by 15 bases (5 amino acids) than is the levan fructotransferase gene derived from A. nicotinovorans GS-9. These two genes are 81% in the homology of amino acid sequence (76% in the homology of base sequence). Consequently, the levan fructotransferase gene of A. ureafaciens K2032 was identified as being new and its base sequence was registered in the GenBank, U.S.A. (Accession No. AF181254).

[3] = additive concentration 1 mM, control = 100
[4] = additive concentration 10 mM, control = 100

## [Ca+2].[Cl-].[Cl-] [CaCl2]
[1]; [3]
  Relative activity: 156%
[1]; [4]
  Relative activity: 181%
[1]; metal ions
  Effect on the activity of the enzyme (in words): enhanced

## O=C(O)CN(CCN(CC(=O)O)CC(=O)O)CC(=O)O [EDTA, reference compound]
[1]; [3]
  Relative activity: 95%
[1]; [4]
  Relative activity: 94%

## [Cl][Fe][Cl] [FeCl2]
[1]; [3]
  Relative activity: 4%
[1]; metal ions
  Effect on the activity of the enzyme (in words): inhibited

## [Cl][Hg][Cl] [HgCl2]
[1]; [3]
  Relative activity: 0%
[1]; metal ions
  Effect on the activity of the enzyme (in words): inhibited

## [Cl-].[K+] [KCl]
[1]; [3]
  Relative activity: 89%

## [Cl-].[Li+] [LiCl]
[1]; [3]
  Relative activity: 92%

## [Cl-].[Cl-].[Mg+2] [MgCl2]
[1]; [3]
  Relative activity: 63%

## [Cl][Mn][Cl] [MnCl2]
[1]; [3]
  Relative activity: 9%
[1]; metal ions
  Effect on the activity of the enzyme (in words): inhibited

## Cl.N [NH4Cl]
[1]; [3]
  Relative activity: 46%

## [Cl-].[Na+] [NaCl]
[1]
  Effect on the activity of the enzyme (in words): enhanced
  Relative activity: 125, 142%

## [Cl][Ni][Cl] [NiCl]
[1]; [3]
  Relative activity: 74%

## CCCCCCCCCCCCOS(=O)(=O)[O-].[Na+] [SDS, sodium dodecylsulfate, reference compound]
[1]; [3]
  Relative activity: 101%
[1]; [4]
  Relative activity: 32%

## [Cl-].[Cl-].[Zn+2] [ZnCl2]
[1]; [3]
  Relative activity: 23%

B1: levan fructotransferase: enzyme purified from A. ureafaciens K2032 that produces DFA IV from levan; SEQ ID NO: 1 (protein)
chain: MTPAISRRAVLQGAGAGALALIFGGAVPPAARASAPGSLRAVYHMTPPSGWLCDPQRPVTTHGAYQLYYLHSDQNNGPGGWDHASTTDGVAFTHHGTVMPLRPDFPVWSGSAVVGTANTAGFGAGAVVALATQPTDGVRKYQEQYLYWSTDGGFTFTALPDPVIVNTDGRAATTPAEIENAEWFRDPKIHWDTARGEWVCVIGRLRYAAFYTSPNLRDWTLRRNFDYPNHALGGIECPDLFEITADDGTRHWVLAASMDAYGIGLPMTYAYWTGTWDGEQFHADDLTPQWLDWGWDWYAAVTWPSIDAPETKRLAIAWMNNWKYAARDVPTDASDGYNGQNSIVRELRLARQPGGWYTLLSTPVAALTNYVTATTTLPDRTVDGSAVLPWNGRAYEIELDIAWDTATNVGISVGRSPDGTRHTNIGKYGADLYVDRGPSDLAGYSLAPYSRAAAPIDPGARSVHLRILVDTQSVEVFVNAGHTVLSQQVHFAEGDTGISLYTDGGPAHFTGIVVREIGQAI
modifications: Arthrobacter ureafaciens K2032
[2]
  pH range in which the enzyme maintains its stability: 4-10.5
[2]; after acetone precipitation, ion exchange and gel filtration chromatography
  Specific activity: 2269 U/mg protein
[2]; after standing at 50° C. for 30 min
  Remnant activity: ≥ 90%
[2]; levan fructotransferase encoded by lftA
  Isoelectric point: 5.15 pH
